Converted amounts (≈) assume the structure as drawn. Read-outs that look alike come from different tables or passages of the source. Where a SMILES comes first, the peptide text is derived from it. [ ]: non-standard residue; d: D form. d(hArg) = N=C(N)NCCCC[C@@H](N)C(=O)O
Columns and labels:
[1] = test system: K. pneumoniae clinical isolates; experiment: microbe, parasite or virus in culture; conditions: Klebsiella pneumoniae
Description: (§1) Subcultures, prepared by inoculating 25 mL of fresh tryptic soy broth (TSB) with 200 μL of an overnight culture, were grown to log phase (OD600 = 0.3–0.6), after which cell counts were determined by measuring the OD600 (1.0 = 5 × 10^8 CFU/mL for E. coli, 4 × 10^8 CFU/mL for K. pneumoniae, 4 × 10^8 CFU/mL for P. aeruginosa, 1.5 × 10^8 CFU/mL for S. aureus). Bacterial cells were diluted to appropriate concentrations in TSB. We used the following clinical bacterial isolates of Klebsiella pneumoniae in this study: Strains KP6, KP46, NDM-1, KP396, and KP398 have been previously described.[43] ST58 strains C2, C3, and I2 are also described.[41] […] MRSA, […] S. aureus strain, is SAP400, a USA400 strain of community-acquired MRSA. […] The second independent set of K. pneumoniae isolates are previously described.[20],[21]
The antibiotics were serially diluted by a factor of 2:3 horizontally across 96-well plates from Corning, 25 μL per well. One column was reserved for controls. For the assays performed in the presence of RBC, type O+ human RBCs at 0 or 2.5 × 10^9 cells/mL were added in 50 μL aliquots to all wells. […] To assess bacterial growth in the assays with RBC, the OD600 was measured after a second-day inoculation with 10 μL of solution from the original plate added to 100 μL of sterile TSB followed by overnight incubation.
(§2) Experiments were repeated four to eight times independently, with pairs of replicate measurements on each 96-well plate. After overnight growth, optical densities were measured at 660 nm and the sterilized wells were identified by having O.D. < 0.08. Nonsterilized wells were nearly opaque with OD > 0.6. For each measurement, we recorded the largest dilution that sterilized the bacteria. Statistics are done on dilution numbers, rather than calculated concentrations, because only the former have normal distributions.

[2] = test system: MRSA SAP400, a USA400 strain; experiment: microbe, parasite or virus in culture; conditions: Staphylococcus aureus, read-out: MIC, MRSA USA400
Description: as §1
(§3) The antibiotics were serially diluted by a factor of 2:3 horizontally across 96-well plates from Corning, 25 μL per well. One column was reserved for controls. For the assays performed in the presence of RBC, type O+ human RBCs at 0 or 2.5 × 10^9 cells/mL were added in 50 μL aliquots to all wells. Following a 30-min incubation, 50 μL of TSB, inoculated with 5 × 10^5 CFU/mL, was added to all wells, and plates were incubated overnight at 37 °C. Following overnight incubation at 37 °C, the OD600 was measured (values of less than 0.1 were considered sterilized). To assess bacterial growth in the assays with RBC, the OD600 was measured after a second-day inoculation with 10 μL of solution from the original plate added to 100 μL of sterile TSB followed by overnight incubation.
as §2

[3] = test system: Pseudomonas aeruginosa clinical isolates; experiment: microbe, parasite or virus in culture; conditions: Pseudomonas aeruginosa
Description: as §1, §3, §2

[4] = test system: Acinetobacter baumannii (PDR) Tulane isolate; experiment: microbe, parasite or virus in culture; conditions: read-out: MIC, AB (PDR)Tulane
[5] = test system: human RBCs; type: cell-based
Description: Human O+ erythrocytes were obtained from Interstate Blood Bank, Inc. Red blood cells were subjected to four or more cycles of centrifugation at 1000g with resuspension in fresh PBS. Following the final wash step, the supernatant was clear and colorless. RBC concentration was determined using a standard hemocytometer.
Peptide was serially diluted in PBS starting at a concentration of 100 μM. The final volume of peptide in each well was 50 μL. To each well, 50 μL of RBCs in PBS at 2 × 10^8 cells/mL was added. As a positive lysis control, 1% Triton was used. The mixtures were incubated at 37 °C for 1 h, after which they were centrifuged at 1000g for 5 min. After centrifugation, 10 μL of supernatant was transferred to 90 μL of DI H2O in a fresh 96-well plate. The absorbance of released hemoglobin at 410 nm was recorded, and the fractional hemolysis was calculated based on the 100 and 0% lysis controls. At least three independent experiments were performed. Results shown are averages.

[6] = test system: WI-38 human fibroblast cells; experiment: in vitro; type: cell-based
Description: The day before cytotoxicity experiments, the 10,000 cells/well were plated in a 96-well tissue-culture plate. […] To perform the cytotoxicity assay, media was removed from the wells and replaced with peptide solutions. […] The plate was read for SYTOX fluorescence every 5 min for an hour with an excitation wavelength of 504 nm and an emission wavelength of 523 nm. Percent cytotoxicity was calculated at 60 min using the 100 and 0% lysis controls. At least three independent experiments were averaged.

[7] = test system: 14 clinical isolates of resistant bacterial strains; experiment: Broth dilution, summary over the 14 clinical isolates of the first set; type: cell-based; conditions: statement for all 14 clinical isolates of the first set; read-out: MIC, all isolates (completely resistant)
Description: In Figure 4B, we plot the fraction of isolates sterilized as functions of antibiotic concentration.
as §1, §3

[8] = ATCC33495, read-out: MIC, KP ATCC 33495

MIC [1, 8] [µM]	MIC ([1]; read-out: MIC, KP 6) [µM]	MIC ([1]; read-out: MIC, KP 46) [µM]	MIC ([1]; read-out: MIC, KP 398) [µM]	MIC ([1]; read-out: MIC, KP 2146NDM-1) [µM]	MIC ([1]; read-out: MIC, KP (CRE)) [µM]	MIC ([1]; read-out: MIC, KP ST258 C2) [µM]	MIC ([1]; read-out: MIC, KP ST258 C3) [µM]	MIC ([1]; read-out: MIC, KP ST258 I2) [µM]	MIC ([1]; read-out: MIC, KP ST396) [µM]	MIC [2] [µM]	MIC ([3]; read-out: MIC, PA(mucoid)) [µM]	MIC ([3]; read-out: MIC, PA(non-mucoid)) [µM]	MIC [4] [µM]	SMILES	Hemolysis at 100 μM (fractional hemolysis) [5]	EC50 [6] [µM]	other results
0.2 (≈ 0.0767 µg/mL)	0.2 (≈ 0.0767 µg/mL)	0.4 (≈ 0.153 µg/mL)	0.2 (≈ 0.0767 µg/mL)	> 150	108 (≈ 41.4 µg/mL)	> 150	> 150	> 150	0.3 (≈ 0.115 µg/mL)	> 150	13.3 (≈ 5.1 µg/mL)	4 (≈ 1.53 µg/mL)	> 150	C[C@@H](O)[C@H]1C(=O)N2C(C(=O)O)=C(S[C@@H]3CN[C@H](C(=O)N(C)C)C3)[C@H](C)[C@H]12 [MEM, meropenem]			
0.3 (≈ 0.166 µg/mL)	> 150	1.9 (≈ 1.05 µg/mL)	0.2 (≈ 0.111 µg/mL)	> 150	45 (≈ 25 µg/mL)	> 150	> 150	> 150	1.9 (≈ 1.05 µg/mL)	> 150	137 (≈ 76 µg/mL)	89 (≈ 49.4 µg/mL)	> 150	CO/N=C(\C(=O)N[C@@H]1C(=O)N2C(C(=O)O)=C(CSc3nc(=O)c(=O)[nH]n3C)CS[C@H]12)c1csc(N)n1 [CRO, ceftriaxone]			
										0.8 (≈ 0.265 µg/mL)			> 150	O=C(O)c1cn(C2CC2)c2cc(N3CCNCC3)c(F)cc2c1=O [CIPRO, ciprofloxacin]			
7.5 (≈ 3.51 µg/mL)	> 150	3.5 (≈ 1.64 µg/mL)	6.9 (≈ 3.23 µg/mL)	> 150	> 150	> 150	> 150	> 150	4.6 (≈ 2.15 µg/mL)	> 150	4.2 (≈ 1.96 µg/mL)	5.9 (≈ 2.76 µg/mL)	> 150	NC[C@H]1O[C@H](O[C@H]2[C@H](O)[C@@H](O[C@H]3O[C@H](CO)[C@@H](O)[C@H](N)[C@H]3O)[C@H](N)C[C@@H]2N)[C@H](N)C[C@@H]1O [TOB, tobramycin]			

The next lines start with the compound.

SMILES	MIC [1, 8] [µM]	MIC ([1]; read-out: MIC, KP 6) [µM]	MIC ([1]; read-out: MIC, KP 46) [µM]	MIC ([1]; read-out: MIC, KP 398) [µM]	MIC ([1]; read-out: MIC, KP 2146NDM-1) [µM]	MIC ([1]; read-out: MIC, KP (CRE)) [µM]	MIC ([1]; read-out: MIC, KP ST258 C2) [µM]	MIC ([1]; read-out: MIC, KP ST258 C3) [µM]	MIC ([1]; read-out: MIC, KP ST258 I2) [µM]	MIC ([1]; read-out: MIC, KP ST396) [µM]	MIC [2] [µM]	MIC ([3]; read-out: MIC, PA(mucoid)) [µM]	MIC ([3]; read-out: MIC, PA(non-mucoid)) [µM]	MIC [4] [µM]	Hemolysis at 100 μM (fractional hemolysis) [5]	EC50 [6] [µM]	other results
CC(C)C[C@@H](NC(=O)[C@@H](CCCNC(=N)N)NC(=O)[C@H](N)CCCNC(=N)N)C(=O)N[C@H](C)C(=O)N[C@H](Cc1ccccc1)C(=O)N[C@H](C)C(=O)N[C@H](Cc1ccccc1)C(=O)N[C@H](CCCNC(=N)N)C(=O)N[C@H](CCCNC(=N)N)C(=O)N[C@H](Cc1c[nH]c2ccccc12)C(=O)N[C@H](C)C(=O)N[C@H](CCCNC(=N)N)C(=O)N[C@H](CCCNC(=N)N)C(N)=O [D-CONGA-FLIP] (H-[dR][dR][dL][dA][dF][dA][dF][dR][dR][dW][dA][dR][dR]-NH2; N-terminus and C-terminus assumed)															0.05	143	
CC(C)C[C@@H](NC(=O)[C@@H](CCCNC(=N)N)NC(=O)[C@@H](CCCNC(=N)N)NC(=O)[C@@H](C)NC(=O)[C@@H](Cc1c[nH]c2ccccc12)NC(=O)[C@@H](CCCNC(=N)N)NC(=O)[C@H](N)CCCNC(=N)N)C(=O)N[C@H](C)C(=O)N[C@H](Cc1ccccc1)C(=O)N[C@H](Cc1ccccc1)C(=O)N[C@H](CCCNC(=N)N)C(=O)N[C@H](CCCNC(=N)N)C(N)=O [D-CONGA-ΔA10] (H-[dR][dR][dW][dA][dR][dR][dL][dA][dF][dF][dR][dR]-NH2; N-terminus and C-terminus assumed)															0.02	257	
CC(C)C[C@@H](NC(=O)[C@@H](CCCCNC(=N)N)NC(=O)[C@@H](CCCCNC(=N)N)NC(=O)[C@@H](C)NC(=O)[C@@H](Cc1c[nH]c2ccccc12)NC(=O)[C@@H](CCCNC(=N)N)NC(=O)[C@H](N)CCCNC(=N)N)C(=O)N[C@H](C)C(=O)N[C@H](Cc1ccccc1)C(=O)N[C@H](C)C(=O)N[C@H](Cc1ccccc1)C(=O)N[C@H](CCCNC(=N)N)C(=O)N[C@H](CCCNC(=N)N)C(N)=O [D-CONGA-HomoR] (H-[dR][dR][dW][dA][d(hArg)][d(hArg)][dL][dA][dF][dA][dF][dR][dR]-NH2; N-terminus and C-terminus assumed)															0.06	143	
CC1(C)S[C@@H]2[C@H](NC(=O)[C@H](N)c3ccccc3)C(=O)N2[C@H]1C(=O)O [AMP, ampicillin]											> 150	> 150	> 150	> 150			MIC [7]: > 150 µM
CC(C)C[C@@H](NC(=O)CNC(=O)[C@@H](CCCNC(=N)N)NC(=O)[C@@H](CCCNC(=N)N)NC(=O)[C@@H](C)NC(=O)[C@@H](Cc1c[nH]c2ccccc12)NC(=O)[C@@H](CCCNC(=N)N)NC(=O)[C@H](N)CCCNC(=N)N)C(=O)N[C@H](C)C(=O)N[C@H](Cc1ccccc1)C(=O)N[C@H](C)C(=O)N[C@H](Cc1ccccc1)C(=O)N[C@H](CCCNC(=N)N)C(=O)N[C@H](CCCNC(=N)N)C(N)=O [D-CONGA-G7] (H-[dR][dR][dW][dA][dR][dR]G[dL][dA][dF][dA][dF][dR][dR]-NH2; N-terminus and C-terminus assumed)															0.07	235	
CC(C)C[C@@H](NC(=O)[C@@H](CCCNC(=N)N)NC(=O)[C@@H](CCCNC(=N)N)NC(=O)[C@@H](Cc1c[nH]c2ccccc12)NC(=O)[C@@H](CCCNC(=N)N)NC(=O)[C@H](N)CCCNC(=N)N)C(=O)N[C@H](C)C(=O)N[C@H](Cc1ccccc1)C(=O)N[C@H](C)C(=O)N[C@H](Cc1ccccc1)C(=O)N[C@H](CCCNC(=N)N)C(=O)N[C@H](CCCNC(=N)N)C(N)=O [D-CONGA-ΔA4] (H-[dR][dR][dW][dR][dR][dL][dA][dF][dA][dF][dR][dR]-NH2; N-terminus and C-terminus assumed)															0.02	143	

From article PMC10111420, “Optimization of Host Cell-Compatible, Antimicrobial Peptides Effective against Biofilms and Clinical Isolates of Drug-Resistant Bacteria” (ACS Infectious Diseases, 2023)
